Legend:
[1] = Peroxide value of fish oil at 10° C.
Description: The shelf life is calculated using Rancimat shelf life calculator. The shelf life of oil is studied by carrying out chemical analysis, which include studying peroxide value (represents extent of primary oxidation), Para-anisidine value (represents extent of secondary oxidation) and totox value (reflects total oxidation of oil). […] […] The untreated oil is the control sample without any antioxidant.

[2] = Oil stability index (Rancimat) of fish oil; details: 200 ppm; for Induction Time: in h
Description: 4.0 g of fish oil is weighed into the reaction vessel. […] The temperature of the block is maintained at 60° C., 70° C. and 80° C., respectively.

[3] = Oil stability index (Rancimat) of almond oil; details: for Induction Time: in h
Description: (§1) The oil stability index is determined using the Metrohm's Rancimat (Metrohm 743 Rancimat).
4.0 g of almond oil is weighed into the reaction vessel. The reaction vessel filled with oil is placed in a heating block. The temperature of the block is maintained at 100° C., 120° C. and 140° C., respectively. The oil is heated at the said temperatures, followed by passing air at a flow rate of 20 L/h. […] These compounds are conveyed by the air flow into measurement vessel containing distilled water where conductivity is being checked continuously by sensor.
The above experiment is repeated by adding 200 ppm of BHA (sample-B), 200 ppm of BHT (sample-B1), 500 ppm of alpha tocopherol (sample-B2) and PRESOL at 200 ppm, 500 ppm and 1000 ppm, respectively to almond oil. From the above experiment, oxidative stability index of untreated oil (control) and treated oil is calculated and the below table illustrates the induction time and the obtained oxidative stability.

[4] = Oil stability index (Rancimat) of apricot oil; details: for Induction Time at 200 ppm: in h
Description: As used herein, ‘Oil Stability Index (OSI)’ is an American Oil Chemists Society (AOCS) approved method that determines the relative resistance of fat and oil samples to oxidation, which is defined by the following equation—
as §1
4.0 g of apricot oil is weighed into the reaction vessel. The reaction vessel filled with oil is placed in a heating block. The temperature of the block is maintained at 100° C., 120° C. and 140° C., respectively. The oil is heated at the said temperatures, followed by passing air at a flow rate of 20 L/h. Flowing of air through the oil produces peroxides during primary oxidation and organic acids having low molecular weight, aldehydes and ketones with typical rancid odor during the secondary oxidation phase. These compounds are conveyed by the air flow into measurement vessel containing distilled water where conductivity is being checked continuously by sensor.
The above experiment is repeated by adding 200 ppm of BHA (sample-B), 200 ppm of BHT (sample-B1), 500 ppm of alpha tocopherol (sample-B2) and PRESOL at 200 ppm, 500 ppm and 1000 ppm, respectively to apricot oil.

With `Cc1c(C)c2c(c(C)c1O)CC[C@@](C)(CCC[C@H](C)CCC[C@H](C)CCCC(C)C)O2` [Sample B2, alpha tocopherol] the “days after which peroxide value crosses the threshold limit of 8 meq/kg” value ([1]; 200 ppm) was 21 days, the Peroxide value ([1]; day 0, 200 ppm) was 1.74 and the Peroxide value ([1]; day 3, 200 ppm) was 2.13. It also gave a Peroxide value ([1]; day 6, 200 ppm) of 3.33, a Peroxide value ([1]; day 9, 200 ppm) of 4.71 and a Peroxide value ([1]; day 12, 200 ppm) of 5.41. The Peroxide value ([1]; day 15, 200 ppm) was 6.82, the Peroxide value ([1]; day 18, 200 ppm) was 7.84 and the Peroxide value ([1]; day 21, 200 ppm) was 9.02. It also gave a Peroxide value ([1]; day 24, 200 ppm) of 10.32, a Peroxide value ([1]; day 27, 200 ppm) of 12.02 and a Peroxide value ([1]; day 30, 200 ppm) of 13.01. For the same molecule, the Peroxide value ([1]; day 33, 200 ppm) was 15.44, the Peroxide value ([1]; day 36, 200 ppm) was 17.16 and the Peroxide value ([1]; day 39, 200 ppm) was 18.94. It also gave a Peroxide value ([1]; day 42, 200 ppm) of 20.86, a Peroxide value ([1]; day 45, 200 ppm) of 25.09 and a Peroxide value ([1]; day 48, 200 ppm) of 28.71. For the same molecule, the Peroxide value ([1]; day 51, 200 ppm) was 33.89, the Peroxide value ([1]; day 54, 200 ppm) was 39.01 and the Peroxide value ([1]; day 57, 200 ppm) was 44.14. For the same molecule, the Peroxide value ([1]; day 60, 200 ppm) was 49.22, the Peroxide value ([1]; day 63, 200 ppm) was 50.06 and the Peroxide value ([1]; day 66, 200 ppm) was 51.22. For the same molecule, the Peroxide value ([1]; day 69, 200 ppm) was 50.85, the Peroxide value ([1]; day 72, 200 ppm) was 50.13 and the Peroxide value ([1]; day 75, 200 ppm) was 49.72. The “Oxidative Stability Index (OSI)” value ([2]; 60° C.) was 2.81, the “Induction Time” value ([2]; 60° C.) was 27.68 and the “Oxidative Stability Index (OSI)” value ([2]; 70° C.) was 2.76. The “Induction Time” value ([2]; 70° C.) was 13.74, the “Oxidative Stability Index (OSI)” value ([2]; 80° C.) was 2.76 and the “Induction Time” value ([2]; 80° C.) was 6.78. For the same molecule, the “Oxidative Stability Index (OSI)” value ([3]; 100° C., 500 ppm) was 1.11, the “Induction Time” value ([3]; 100° C., 500 ppm) was 24.51 and the “Oxidative Stability Index (OSI)” value ([3]; 120° C., 500 ppm) was 1.13. The “Induction Time” value ([3]; 120° C., 500 ppm) was 5.73, the “Oxidative Stability Index (OSI)” value ([3]; 140° C., 500 ppm) was 1.04 and the “Induction Time” value ([3]; 140° C., 500 ppm) was 1.43. The “Oxidative Stability Index (OSI)” value ([4]; 100° C., 500 ppm) was 0.82, the “Induction Time at 200 ppm” value ([4]; 100° C., 500 ppm) was 22.06 and the “Oxidative Stability Index (OSI)” value ([4]; 120° C., 500 ppm) was 0.86. The “Induction Time at 200 ppm” value ([4]; 120° C., 500 ppm) was 5.06, the “Oxidative Stability Index (OSI)” value ([4]; 140° C., 500 ppm) was 0.89 and the “Induction Time at 200 ppm” value ([4]; 140° C., 500 ppm) was 1.32.
With `Cc1cc(C(C)(C)C)c(O)c(C(C)(C)C)c1` [Sample B1, butylated hydroxyl toluene] the “Induction Time” value ([3]; 100° C., 200 ppm) was 24.98, the “Induction Time” value ([3]; 120° C., 200 ppm) was 5.89 and the “Induction Time” value ([3]; 140° C., 200 ppm) was 1.48. The “Induction Time at 200 ppm” value ([4]; 100° C., 200 ppm) was 26.96, the “Induction Time at 200 ppm” value ([4]; 120° C., 200 ppm) was 5.93 and the “Induction Time at 200 ppm” value ([4]; 140° C., 200 ppm) was 1.49.

Reference: US20140248361A1, “HERBAL EXTRACT COMPOSITION AND A PROCESS THEREOF” (PRASAN SOLUTIONS (INDIA) PVT LTD, priority 2012, published 2014)
